How the values were obtained:
[1] = system: Escherichia coli; assay: Antimicrobial activity against New Delhi metallo-beta lactamase-1 producing Escherichia coli 50739822 assessed as reduction in bacterial growth incubated for 48 hrs by microdilution method; format: functional
[2] = system: Pseudomonas aeruginosa; assay: Antimicrobial activity against imipenem-type carbapenemase-14 producing Pseudomonas aeruginosa K44-24 assessed as reduction in bacterial growth incubated for 48 hrs by microdilution method; format: functional
[3] = system: Enterococcus faecium; assay: Antimicrobial activity against extended spectrum-lactamase-carbapenemas producing Enterococcus faecium strain K36-18 assessed as reduction in bacterial growth incubated for 48 hrs by microdilution method; format: functional
[4] = Antimicrobial activity against verona integron-encoded metallo-beta-lactamase -1 producing Klebsiella pneumoniae 50667959 assessed as reduction in bacterial growth incubated for 48 hrs by microdilution method; format: functional
[5] = system: Acinetobacter baumannii; assay: Antimicrobial activity against oxacillinase-23 producing Acinetobacter baumannii K44-35 assessed as reduction in bacterial growth incubated for 48 hrs by microdilution method; format: functional
[6] = system: Escherichia coli; assay: Antimicrobial activity against imipenem-type carbapenemase-26 producing Escherichia coli 50857972 assessed as reduction in bacterial growth incubated for 48 hrs by microdilution method; format: functional
[7] = system: Escherichia coli; assay: Antimicrobial activity against Escherichia coli ATCC 25922 assessed as reduction in bacterial growth incubated for 48 hrs by microdilution susceptibility test; format: functional
[8] = system: Acinetobacter baumannii; assay: Antimicrobial activity against oxacillinase-23 producing Acinetobacter baumannii K63-58 assessed as reduction in bacterial growth incubated for 48 hrs by microdilution method; format: functional
[9] = system: MRC5; assay: Cytotoxicity against human MRC5 cells assessed as reduction in cell viability incubated for 24 hrs by colorimetric tetrazolium assay; format: functional, cell-based; conditions: MRC5, 24 h
[10] = system: Escherichia coli; assay: Antimicrobial activity against verona integron-encoded metallo-beta-lactamase-29-producing Escherichia coli 50639799 assessed as reduction in bacterial growth incubated for 48 hrs by microdilution method; format: functional
[11] = system: Enterococcus faecium; assay: Antimicrobial activity against extended spectrum-lactamase-carbapenemas producing Enterococcus faecium strain 50901530 assessed as reduction in bacterial growth incubated for 48 hrs by microdilution method; format: functional
[12] = system: Acinetobacter baumannii; assay: Antimicrobial activity against oxacillinase-24 producing Acinetobacter baumannii K55-13 assessed as reduction in bacterial growth incubated for 48 hrs by microdilution method; format: functional
[13] = system: Staphylococcus aureus; assay: Antimicrobial activity against Staphylococcus aureus ATCC 9144 assessed as reduction in bacterial growth incubated for 48 hrs by microdilution susceptibility test; format: functional
[14] = system: Pseudomonas aeruginosa; assay: Antimicrobial activity against Pseudomonas aeruginosa PAO1 assessed as reduction in bacterial growth incubated for 48 hrs by microdilution susceptibility test; format: functional
[15] = system: Corynebacterium glutamicum; assay: Antimicrobial activity against Corynebacterium glutamicum ATCC 13032 assessed as reduction in bacterial growth incubated for 48 hrs by microdilution susceptibility test; format: functional
[16] = Hemolytic activity in human erythrocytes incubated for 1 hr by microplate reader; format: functional, cell-based; conditions: erythrocyte
[17] = system: Enterococcus faecium; assay: Antimicrobial activity against extended spectrum-lactamase-carbapenemas producing Enterococcus faecium strain 50758899 assessed as reduction in bacterial growth incubated for 48 hrs by microdilution method; format: functional
[18] = system: Escherichia coli; assay: Antimicrobial activity against oxacillinase-producing Escherichia coli 50579417 assessed as reduction in bacterial growth incubated for 48 hrs by microdilution method; format: functional
[19] = system: Pseudomonas aeruginosa; assay: Antimicrobial activity against New Delhi metallo-beta lactamase-1 producing Pseudomonas aeruginosa 50692172 assessed as reduction in bacterial growth incubated for 48 hrs by microdilution method; format: functional
[20] = system: Enterococcus faecium; assay: Antimicrobial activity against extended spectrum-lactamase-carbapenemas producing Enterococcus faecium strain 50673722 assessed as reduction in bacterial growth incubated for 48 hrs by microdilution method; format: functional
[21] = system: Staphylococcus aureus; assay: Antimicrobial activity against extended spectrum-lactamase-carbapenemas producing Staphylococcus aureus NCTC 10442 assessed as reduction in bacterial growth incubated for 48 hrs by microdilution method; format: functional
[22] = system: Staphylococcus aureus; assay: Antimicrobial activity against extended spectrum-lactamase-carbapenemas producing Staphylococcus aureus strain WIS assessed as reduction in bacterial growth incubated for 48 hrs by microdilution method; format: functional
[23] = system: Pseudomonas aeruginosa; assay: Antimicrobial activity against verona integron-encoded metallo-beta-lactamase-4 producing Pseudomonas aeruginosa K34-73 assessed as reduction in bacterial growth incubated for 48 hrs by microdilution method; format: functional
[24] = system: Escherichia coli; assay: Antimicrobial activity against New Delhi metallo-beta lactamase-1 producing Escherichia coli 50676002 assessed as reduction in bacterial growth incubated for 48 hrs by microdilution method; format: functional
[25] = system: Pseudomonas aeruginosa; assay: Antimicrobial activity against verona integron-encoded metallo-beta-lactamase-2 producing Pseudomonas aeruginosa K34-7 assessed as reduction in bacterial growth incubated for 48 hrs by microdilution method; format: functional
[26] = Antimicrobial activity against New Delhi metallo-beta lactamase-1 Klebsiella pneumoniae K66-45 assessed as reduction in bacterial growth incubated for 48 hrs by microdilution method; format: functional
[27] = system: Staphylococcus aureus; assay: Antimicrobial activity against extended spectrum-lactamase-carbapenemas producing Staphylococcus aureus strain 85/2082 assessed as reduction in bacterial growth incubated for 48 hrs by microdilution method; format: functional
[28] = system: Acinetobacter baumannii; assay: Antimicrobial activity against oxacillinase-58 producing Acinetobacter baumannii K12-21 assessed as reduction in bacterial growth incubated for 48 hrs by microdilution method; format: functional
[29] = system: Enterococcus faecium; assay: Antimicrobial activity against extended spectrum-lactamase-carbapenemas producing Enterococcus faecium strain TUH.50-22 assessed as reduction in bacterial growth incubated for 48 hrs by microdilution method; format: functional
[30] = Antimicrobial activity against carbapenemase producing Klebsiella pneumoniae K47-25 assessed as reduction in bacterial growth incubated for 48 hrs by microdilution method; format: functional
[31] = Antimicrobial activity against oxacillinase-245 producing Klebsiella pneumoniae 50625602 assessed as reduction in bacterial growth incubated for 48 hrs by microdilution method; format: functional
[32] = system: Staphylococcus aureus; assay: Antimicrobial activity against extended spectrum-lactamase-carbapenemas producing Staphylococcus aureus strain IHT 99040 assessed as reduction in bacterial growth incubated for 48 hrs by microdilution method; format: functional
[33] = system: Pseudomonas aeruginosa; assay: Antimicrobial activity against verona integron-encoded metallo-beta-lactamase producing Pseudomonas aeruginosa 50692520 assessed as reduction in bacterial growth incubated for 48 hrs by microdilution method; format: functional
[34] = system: Staphylococcus aureus; assay: Antimicrobial activity against extended spectrum-lactamase-carbapenemas producing Staphylococcus aureus N315 assessed as reduction in bacterial growth incubated for 48 hrs by microdilution method; format: functional
[35] = Antimicrobial activity against New Delhi metallo-beta lactamase-1 and oxacillinase -181 producing Klebsiella pneumoniae 50531633 assessed as reduction in bacterial growth incubated for 48 hrs by microdilution method; format: functional
[36] = system: Acinetobacter baumannii; assay: Antimicrobial activity against oxacillinase-23 producing Acinetobacter baumannii K47-42 assessed as reduction in bacterial growth incubated for 48 hrs by microdilution method; format: functional
[37] = system: HepG2; assay: Cytotoxicity against human HepG2 cells assessed as reduction in cell viability incubated for 24 hrs by colorimetric tetrazolium assay; format: functional, cell-based; conditions: HepG2, 24 h

Row | SMILES | MIC [1] | MIC [2] | MIC [3] | MIC [4] | MIC [5] | MIC [6] | MIC [7] | MIC [8] | IC50 [9] | MIC [10] | MIC [11] | MIC [12] | MIC [13] | MIC [14] | MIC [15] | EC50 [16] | MIC [17] | MIC [18] | MIC [19] | MIC [20] | other results
1 | NCCCCN1C(=O)N(CCCCN)C(=O)C(Cc2cc(C(F)(F)F)cc(C(F)(F)F)c2)(Cc2cc(C(F)(F)F)cc(C(F)(F)F)c2)C1=O.O=C(O)C(F)(F)F.O=C(O)C(F)(F)F | 16 µg/mL | 32 µg/mL | 16 µg/mL | 32 µg/mL | 32 µg/mL | 8 µg/mL | 16 µg/mL | 32 µg/mL | 17 µg/mL | 16 µg/mL | 8 µg/mL | 32 µg/mL | 16 µg/mL | 16 µg/mL | 4 µg/mL | 177 µg/mL | 16 µg/mL | 16 µg/mL | 32 µg/mL | 8 µg/mL | MIC [21]: 16 µg/mL; MIC [22]: 16 µg/mL; MIC [23]: 32 µg/mL; MIC [24]: 16 µg/mL; MIC [25]: 32 µg/mL; MIC [26]: 32 µg/mL; MIC [27]: 16 µg/mL; MIC [28]: 16 µg/mL; MIC [29]: 8 µg/mL; MIC [30]: > 32 µg/mL; MIC [31]: 32 µg/mL; MIC [32]: 16 µg/mL; MIC [33]: 32 µg/mL; MIC [34]: 16 µg/mL; MIC [35]: 32 µg/mL; MIC [36]: 32 µg/mL; IC50 [37]: 9 µg/mL
2 | NCCCCN1C(=O)N(CCCCN)C(=O)C(Cc2ccc(Br)c(Cl)c2)(Cc2ccc(Br)c(Cl)c2)C1=O.O=C(O)C(F)(F)F.O=C(O)C(F)(F)F | 16 µg/mL | 32 µg/mL | 16 µg/mL | 32 µg/mL | 32 µg/mL | 16 µg/mL | 16 µg/mL | 32 µg/mL | 10 µg/mL | 16 µg/mL | 8 µg/mL | 32 µg/mL | 4 µg/mL | 32 µg/mL | 1 µg/mL | 172 µg/mL | 16 µg/mL | 16 µg/mL | 32 µg/mL | 16 µg/mL | MIC [21]: 8 µg/mL; MIC [22]: 8 µg/mL; MIC [23]: 32 µg/mL; MIC [24]: 16 µg/mL; MIC [25]: 32 µg/mL; MIC [26]: 32 µg/mL; MIC [27]: 4 µg/mL; MIC [28]: 32 µg/mL; MIC [29]: 4 µg/mL; MIC [30]: 32 µg/mL; MIC [31]: 32 µg/mL; MIC [32]: 4 µg/mL; MIC [33]: 32 µg/mL; MIC [34]: 8 µg/mL; MIC [35]: 16 µg/mL; MIC [36]: 32 µg/mL; IC50 [37]: 6 µg/mL
3 | CC(C)(C)c1ccc(CC2(Cc3ccc(C(C)(C)C)cc3)C(=O)N(CCCCNC(=N)N)C(=O)N(CCCCNC(=N)N)C2=O)cc1.O=C(O)C(F)(F)F.O=C(O)C(F)(F)F | 4 µg/mL | 16 µg/mL | 2 µg/mL | 16 µg/mL | 8 µg/mL | 4 µg/mL | 2 µg/mL | 4 µg/mL | 14 µg/mL | 4 µg/mL | 4 µg/mL | 8 µg/mL | 1 µg/mL | 4 µg/mL | < 0.13 µg/mL | 77 µg/mL | 2 µg/mL | 4 µg/mL | 16 µg/mL | 2 µg/mL | MIC [21]: 2 µg/mL; MIC [22]: 2 µg/mL; MIC [23]: 8 µg/mL; MIC [24]: 4 µg/mL; MIC [25]: 16 µg/mL; MIC [26]: 4 µg/mL; MIC [27]: 2 µg/mL; MIC [28]: 4 µg/mL; MIC [29]: 2 µg/mL; MIC [30]: 4 µg/mL; MIC [31]: 4 µg/mL; MIC [32]: 2 µg/mL; MIC [33]: 16 µg/mL; MIC [34]: 2 µg/mL; MIC [35]: 4 µg/mL; MIC [36]: 8 µg/mL; IC50 [37]: 28 µg/mL

Source: ChEMBL document CHEMBL5055633, “Amphipathic Barbiturates as Mimics of Antimicrobial Peptides and the Marine Natural Products Eusynstyelamides with Activity against Multi-resistant Clinical Isolates” (J Med Chem, 2021)
